From patent US20090227562A1, “Combination of a Selective Noradrenaline Reuptake Unhibitor and a PDEV Inhibitor” (Pfizer Inc., priority 2004, published 2009)

Assays:
dopamine reuptake = conditions: cited from earlier work
serotonin reuptake = conditions: cited from earlier work
norepinephrine reuptake = conditions: as disclosed in WO-A-01/01973; cited from earlier work
[1] = test system: static allodynia in the CCI rat model; assay: Static allodynia (von Frey hairs) in the chronic constriction injury (CCI) rat model of neuropathic pain; assay type: in vivo; conditions: CCI rats; for paw withdrawal threshold (PWT), reversal compared to the vehicle treated group: single administration, peak effect 1 h post administration, median [LQ;UQ], 6 rats per group, CCI baseline 2 g; for anti-allodynic effect following single administration: static allodynia, (S,S)-reboxetine 1-3-10-30 mg/kg IP, Compound A 3-10-30 mg/kg SC
Experimental: Male Sprague Dawley rats (175-200 g at time of surgery), obtained from Charles River, Margate, U.K.) were housed in groups of 3-6. All animals were kept under a 12 h light/dark cycle (lights on at 07 h 00 min) with food and water ad libitum. All experiments were carried out by an observer blind to drug treatments. Animals were placed in an anaesthetic chamber and anaesthetised with a 2% isofluorane O2 mixture. The right hind thigh is shaved and swabbed with 1% iodine. Animals were then transferred to a homeothermic blanket for the duration of the procedure and anaesthesia maintained during surgery via a nose cone. The skin was cut along the line of the thigh bone. The common sciatic nerve was exposed at the middle of the thigh by blunt dissection through biceps femoris. Proximal to the sciatic trifurcation, about 7 mm of nerve was freed by inserting forceps under the nerve and the nerve gently lifted out of the thigh. The forceps were gently opened and closed several times to aid clearance of the fascia from the nerve. Suture was pulled under the nerve using forceps and tied in a simple knot until slight resistance was felt and then double knotted. The procedure was repeated until 4 ligatures (4-0 silk) were tied loosely around the nerve with approx 1 mm spacing. The incision was closed in layers and the wound treated with topical antibiotics. Animals were habituated to test cages prior to the assessment of allodynia. Static allodynia was evaluated by application of von Frey hairs (Stoelting, Wood Dale, Ill., USA) in ascending order of force (0.7, 1.2, 1.4, 2, 4, 6, 8, 10, 15 and 26 grams) to the plantar surface of hind paws. […] Once a withdrawal response to a von Frey hair was established, the paw was re-tested, starting with the filament below the one that produced a withdrawal, and subsequently with the remaining filaments in descending force sequence until no withdrawal occurred. The highest force of 26 g lifted the paw as well as eliciting a response, thus represented the cut off point. Each animal had both hind paws tested in this manner. The lowest amount of force required to elicit a response was recorded as paw withdrawal threshold (PWT) in grams. Static allodynia was defined as present if animals responded to a stimulus of, or less than, 4 g, which is innocuous in normal rats. […] Static allodynia was graphically represented as median [LQ;UQ] in a logarithmic scale and data analysed by Kruskall-Wallis test for non-parametric results, followed by Mann-Whitney's U test vs vehicle group for each time point, using Prism Software version 3 (GraphPad, San Diego, USA). […] Data are the peak effects (1 h post administration) for each compound and doses expressed as median [LQ; […] In this specific case it corresponds to the Compound A dose-response line.

| SMILES | dopamine reuptake inhibition (dopamine reuptake) | serotonin reuptake inhibition (serotonin reuptake) | selectivity for the inhibition of norepinephrine reuptake over the inhibition of serotonin reuptake (norepinephrine reuptake) | paw withdrawal threshold (PWT), reversal compared to the vehicle treated group ([1]; 30 mg/kg IP (free base)) [g] | anti-allodynic effect following single administration [1] | paw withdrawal threshold (PWT), reversal compared to the vehicle treated group ([1]; 30 mg/kg SC) [g] |
| --- | --- | --- | --- | --- | --- | --- |
| CCOc1ccccc1OC(c1ccccc1)C1CNCCO1 (racemic) [Reboxetine, (R,R/S,S)-(2-[(2-ethoxyphenoxy)(phenyl)methyl]morpholine)] | no dopamine reuptake inhibition | only marginal serotonin reuptake inhibition | – | – | – | – |
| CCOc1ccccc1O[C@@H](c1ccccc1)[C@@H]1CNCCO1 [(S,S)-reboxetine] | – | – | greatly enhanced selectivity | 6 | dose dependent anti-allodynic effect | – |
| CCCOc1ccc(S(=O)(=O)N2CCN(CC)CC2)cc1-c1nc2c(CC)n(Cc3ccccn3)nc2c(=O)[nH]1 [Compound A, 3-ethyl-5-[5-(4-ethylpiperazin-1-ylsulphonyl)-2-n-propoxyphenyl]-2-(pyridin-2-yl)methyl-2,6-dihydro-7H-pyrazolo[4,3-d]pyrimidin-7-one] | – | – | – | – | dose dependent anti-allodynic effect | 6 |
